Several values for one entry are separate records, joined by “and”; a condition that tells them apart may be missing. Identical values can stand only once.
Columns and labels:
AChE = test system: AChE; set-up: method as in earlier work; conditions: ref 19 (Vaněčková et al.); cited from earlier work
[1] = target: butyrylcholinesterase (BuChE) (Equus caballus, UniProt P81908); assay: Butyrylcholinesterase inhibition, colorimetric (DTNB, butyrylthiocholine substrate); assay type: biochemical, equine; conditions: for inhibition at 500 µM: highest tested concentration; for IC50: butyrylthiocholine substrate; for fold increase in BuChE inhibition by N-methylation compared to non-N-methylated control: ratio of IC50 values
Method: (§1) Pharmacological properties specific to Alzheimer’s disease (AD) were tested on acetylcholinesterases (AChEs) from electric eels and butyrylcholinesterase (BuChE) from equine species using a colorimetric kit (ab138871, Abcam, Cambridge, UK), which measures enzyme activity and inhibition. The reaction was carried out in a final volume of 100 µL in 96-well microplates. […] A 5 µL reaction mixture containing equal amounts of acetylthiocholine/butyrylthiocholine (20X) and DTNB (20X) was then added to each well. Subsequently, the enzyme solution was added to a final concentration of 2 U/mL, and absorbance was measured at 412 nm in kinetic mode for 10 min using a microplate reader (Synergy H1, Biotek, Dorval, QC, Canada). DTNB (Bis(3-carboxy-4-nitrophenyl) disulfide, Ellman’s Reagent), acetylthiocholine iodide, and butyrylthiocholine iodide were obtained from Sigma-Aldrich (Oakville, ON, Canada). Galanthamine (50–0.05 µM) and rivastigmine (400–0.4 µM) were used as positive controls for the AChE and BuChE assays, respectively. Compounds showing inhibition during preliminary screenings were selected for further IC50 value assessment using serially diluted concentrations. All experiments were performed at least twice. Inhibition was calculated using the formula [24]:I = 100 × (1 − ΔAi/ΔA0), where ΔAi is the difference in absorbance between two time points in the presence of the inhibitor, and ΔA0 is the difference in absorbance between two-time points in the presence of DMSO or an appropriate solvent.

[2] = target: T1, acetylcholinesterase (AChE) (Electrophorus electricus, UniProt O42275); assay: Acetylcholinesterase inhibition, colorimetric (DTNB, acetylthiocholine substrate); assay type: biochemical, electric eel; conditions: for inhibition at 500 µM: highest tested concentration; for IC50: Nd = >500 μM
T1 construct: purchased Abcam ab138871
Method: as §1

[3] = test system: human coronavirus OC43 (HCoV-OC43); assay: Antiviral assay, HCoV-OC43 replication in HCT-8 cells (flow cytometry); assay type: cell-based, human betacoronavirus OC43; conditions: for EC50: Betacoronavirus 1, OC43, HCT-8, 72 h, read-out: EC50 OC-43; for SI OC-43 (selectivity index, ratio CC50/EC50): CC50 HCT-8 / EC50 OC-43
[4] = Cytotoxicity assay (Cell-Titer GLO, ATP levels, 72 h); assay type: cell-based, human; conditions: human, 72 h treatment, 4–500 µM
Description: (§2) The human hepatocarcinoma Huh7 cell line (CVCL_0336) was maintained in Dulbecco’s Modified Eagle Medium (DMEM) supplemented with 10% fetal bovine serum (FBS) and 1% penicillin/streptomycin solution (PS, from GIBCO, Fisher Scientific, Toronto, ON, Canada). The human leukemia monocytic THP-1 (CVCL_0006) and adenocarcinoma HCT-8 cell lines (CVCL_2478) were maintained in Roswell Park Memorial Institute (RPMI) medium supplemented with 10% FBS or horse serum, respectively, and 1% PS. All reagents and antibiotics were purchased from GIBCO, Fisher Scientific, Toronto, ON, Canada). Cells were kept in an incubator at 37 °C and 5% CO2.
(§3) In total, 10 × 10^3 Huh7 cells/well, or 5 × 10^4 THP-1 or HCT-8 cells/well were plated in 96-well plates and incubated at 37 °C and 5% CO2. Compounds (4–500 µM, 2-fold dilutions) were added the next day and cytotoxicity was assessed 72 h later by measuring ATP levels with the Cell-Titer GLO assay kit (Promega, Madison, WI, USA). Cell-Titer GLO reagent was added to the plates previously equilibrated to room temperature for 30 min. Plates were mixed for 2 min and incubated for 10 min at room temperature. The luminescence signal was measured with a microplate reader (Synergy H1, Biotek, Dorval, QC, Canada). Viability percentage was calculated as the ratio of the signal of cells exposed to compounds to the signal of cells exposed to solvent (methanol). All experiments were performed at least twice. Median cytotoxic concentrations (CC50) were calculated using GraphPad prism 10.0.2 (GraphPad Software, San Diego, CA, USA).

[5] = as above; assay type: cell-based; conditions: human; HCT-8 cells, 72 h treatment, 4–500 µM
Description: as §2, §3

pseudotyped HIV-1 = assay: microbe, parasite or virus in culture; assay type: cell-based, human immunodeficiency virus (HIV)-1; conditions: for SI HIV-1 (selectivity index, ratio CC50/EC50): CC50 THP-1 / EC50 HIV-1; for EC50: Human immunodeficiency virus 1, THP-1, 72 h, read-out: EC50 HIV-1
dengue virus (DENV) = assay: microbe, parasite or virus in culture; assay type: cell-based; conditions: for SI DENV (selectivity index, ratio CC50/EC50): CC50 Huh7 / EC50 DENV; for EC50: Dengue virus, Huh-7, 72 h, DENVGFP in Huh7 cells, MOI 0.1, 3 days
THP-1 cells = assay: Cytotoxicity assay (Cell-Titer GLO, ATP levels, 72 h); assay type: cell-based, human; conditions: 72 h treatment, 4–500 µM
Description: as §2, §3

Huh7 cells = assay: as above; assay type: cell-based, human; conditions: 72 h treatment, 4–500 µM
Description: as §2, §3

T1 sequence (O42275 24-633): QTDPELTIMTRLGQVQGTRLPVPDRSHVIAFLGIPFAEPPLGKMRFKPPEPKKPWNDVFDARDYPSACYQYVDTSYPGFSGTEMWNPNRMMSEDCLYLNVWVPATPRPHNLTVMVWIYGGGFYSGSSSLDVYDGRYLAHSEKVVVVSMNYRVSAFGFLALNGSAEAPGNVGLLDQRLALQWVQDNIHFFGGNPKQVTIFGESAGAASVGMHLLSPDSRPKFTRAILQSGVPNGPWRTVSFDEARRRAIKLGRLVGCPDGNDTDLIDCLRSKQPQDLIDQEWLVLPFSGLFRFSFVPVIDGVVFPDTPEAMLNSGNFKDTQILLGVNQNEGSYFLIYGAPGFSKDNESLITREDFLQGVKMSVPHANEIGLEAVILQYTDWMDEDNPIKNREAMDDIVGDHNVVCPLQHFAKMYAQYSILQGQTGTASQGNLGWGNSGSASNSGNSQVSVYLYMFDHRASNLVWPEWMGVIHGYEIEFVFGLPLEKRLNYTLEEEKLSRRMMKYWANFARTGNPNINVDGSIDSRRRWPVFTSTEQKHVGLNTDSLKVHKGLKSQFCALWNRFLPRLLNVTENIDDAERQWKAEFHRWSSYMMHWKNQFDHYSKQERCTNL
butyrylcholinesterase (BuChE), sequence (P81908 whole entry): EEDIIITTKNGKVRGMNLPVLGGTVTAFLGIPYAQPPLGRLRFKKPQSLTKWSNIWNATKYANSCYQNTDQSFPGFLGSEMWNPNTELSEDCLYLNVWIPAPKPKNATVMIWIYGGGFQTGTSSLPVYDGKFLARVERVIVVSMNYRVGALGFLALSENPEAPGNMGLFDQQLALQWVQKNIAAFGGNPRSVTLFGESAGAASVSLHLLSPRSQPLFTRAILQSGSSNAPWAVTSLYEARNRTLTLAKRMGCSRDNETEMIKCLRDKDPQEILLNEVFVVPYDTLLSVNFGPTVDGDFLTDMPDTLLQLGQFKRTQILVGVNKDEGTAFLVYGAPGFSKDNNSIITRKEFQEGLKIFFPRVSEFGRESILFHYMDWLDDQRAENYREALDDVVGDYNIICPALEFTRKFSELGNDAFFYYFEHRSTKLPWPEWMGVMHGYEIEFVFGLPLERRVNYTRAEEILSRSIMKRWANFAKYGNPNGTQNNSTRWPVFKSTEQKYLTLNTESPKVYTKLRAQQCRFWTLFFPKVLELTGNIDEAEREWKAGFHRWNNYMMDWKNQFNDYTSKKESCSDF

Row | SMILES | anti-AChE activity (AChE) | inhibition at 500 µM [1] | IC50 [1] | inhibition at 500 µM [2] | IC50 [2] | EC50 [3] | SI OC-43 (selectivity index, ratio CC50/EC50) [3] | CC50 at 72 h ([4]; Huh7 cells) | CC50 at 72 h ([4]; THP-1 cells) | CC50 at 72 h [5] | SI HIV-1 (selectivity index, ratio CC50/EC50) (pseudotyped HIV-1) | EC50 (pseudotyped HIV-1) | SI DENV (selectivity index, ratio CC50/EC50) (dengue virus (DENV)) | EC50 (dengue virus (DENV)) | CC50 (THP-1 cells) | CC50 (Huh7 cells) | fold increase in BuChE inhibition by N-methylation compared to non-N-methylated control [1]
1 | COc1ccc(CCN(C)Cc2ccc(O)c(OC)c2)cc1 [4′-O-demethylbelladine] | weak |  |  |  |  |  |  |  |  |  |  |  |  |  |  |  | 
2 | COc1ccc(CNCCc2ccc(O)cc2)cc1OC [3′,4′-O-dimethylnorbelladine] |  | 94% | 108 µM | 37% | > 500 µM | 84.7 µM | >5.91 | > 500 µM | > 500 µM | > 500 µM | >2.63 | 190 µM | >3.64 | 137 µM |  |  | 
3 | Oc1ccc(CCNCc2ccc(O)c(O)c2)cc1 [Norbelladine] |  | 95% | 8 µM | 24.5% | > 500 µM | 55.7 µM | >8.98 | 233 µM | 148 µM | > 500 µM | 2.22 | 66.9 µM | 3.30 | 70.6 µM | 148 µM | 233 µM | 
4 | CN(CCc1ccc(O)cc1)Cc1ccc(O)c(O)c1 [N-methylnorbelladine] |  | 96% | 3.94 µM and 4 µM | 31.2% | > 500 µM | 66.8 µM | >7.49 | 386 µM | 227 µM | > 500 µM | 5.36 | 42.3 µM | 5.70 | 67.7 µM | 227 µM | 386 µM | 2 fold
5 | COc1ccc(CN(C)CCc2ccc(O)cc2)cc1O [4′-O,N-dimethylnorbelladine, 5-(((4-hydroxyphenethyl)(methyl)amino)methyl)-2-methoxyphenol] |  | 99% | 10.4 µM | 43.6% | > 500 µM | 42.4 µM | >11.80 | 460 µM | > 500 µM | > 500 µM | >4.06 | 123 µM | 4.81 | 95.8 µM |  |  | 1.5 fold
6 | COc1cc(CNCCc2ccc(O)cc2)ccc1O [3′-O-methylnorbelladine] |  | 96% | 27.5 µM | 10% | > 500 µM | 74.5 µM | >6.71 | > 500 µM | > 500 µM | > 500 µM | >2.83 | 177 µM | >3.62 | 138 µM |  |  | 
7 | COc1ccc(CNCCc2ccc(O)cc2)cc1O [4′-O-methylnorbelladine] |  | 99% | 16.1 µM | 33.6% | > 500 µM | 63 µM | >7.93 | > 500 µM | > 500 µM | > 500 µM | >3.06 | 163 µM | >6.28 | 79.6 µM |  |  | 

Source: PMC11433679, “Synthesis, Characterization, and Biological Evaluation of N-Methyl Derivatives of Norbelladine” (Molecules, 2024)
